The values that follow come from PMC12670118 (Chemical Science, 2025).

One series concerns MCF-10A cells. Kind of series: MTT antiproliferative assay, MCF-10A. It counts as cell-based, human. As to conditions: read-out: Cytotoxicity IC50, 72 h. Background: Tetrazolium assays rely on reduction of a dye to a coloured formazan, in cell work by metabolically active cells.
The test system of the next series is p-STING. The experiment in a line: Immunohistochemistry of primary tumor tissue. It counts as in vivo, mouse. As to conditions: 5 mg kg^−1 intratumoral, IHC.
A further series has as its system MCF-7 cells. Kind of series: MTT antiproliferative assay, MCF-7. As to conditions: read-out: Cytotoxicity IC50, MCF-7, 72 h. It counts as cell-based, human.
A further series concerns 4T1 cells. The experiment in a line: MTT antiproliferative assay, 4T1. It counts as cell-based, mouse. As to conditions: read-out: Cytotoxicity IC50, 4T1, 72 h.
The next series deals with MDA-MB-231 cells. Kind of series: MTT antiproliferative assay, MDA-MB-231. As to conditions: read-out: Cytotoxicity IC50, MDA-MB-231, 72 h. Format: cell-based, human.
In a further series the test system is HeLa cells. Kind of series: MTT antiproliferative assay, HeLa. It counts as cell-based. The following applies: read-out: Cytotoxicity IC50, 72 h.

Consider `N.N.[Cl][Pt][Cl]` [Cisplatin], for which the half-inhibitory concentration (IC50) – broadly, the concentration that inhibits the measured activity by half – in the series with MCF-10A cells worked out at 15.5 ± 4.33 µM; in the series with MCF-7 cells, 18.3 ± 5.74 µM; in the series on 4T1 cells, 25.5 ± 2.52 µM; in the series on MDA-MB-231 cells, 20.2 ± 5.6 µM; in the series on HeLa cells it was 8.35 ± 0.86 µM. Further, in the series on p-STING, the “Expression of p-STING on primary tumors” value is listed as “can't activate the STING pathway in vivo”.
